Where “and” joins values, the source holds several entries; their conditions need not be identical. Equal values may be shown once. Read-outs that look alike come from different tables or passages of the source.
Key:
Alternaria alternata = test: Example F: in vitro-Test with Alternaria alternata; type: cell-based; conditions: compound alone, growth inhibition, photometric, 3-5 days after application
Sphaerotheca fuliginea = test: Example D: in vivo preventive test on Sphaerotheca test (cucumbers); conditions: compound alone
[1] = Example G: in vivo ecotoxicity screening test on fish (Danio rerio); conditions: Danio rerio, in vivo, other: exposure of embryos in water containing the compound
Description: (§1) with ECxi the Effect Concentration (EC) of each chemical i (in ppm) causing x % effect on the ecotoxicity test endpoint.
(§2) For each compound combination, the predicted ECx value is calculated. It is then compared to an experimentally measured value. The ratio of predicted versus measured effect for the combination (thereafter called the Model Deviation Ratio or MDR) is then calculated.
(§3) The environmental effect of the compound combinations was measured experimentally in laboratory ecotoxicity screening studies with fish (Danio rerio). […] Mortality was recorded after 48 h and 96 h for each tested concentration and a reference control. […] Then, the MDR values were calculated.
(§4) This concentrate is then diluted with water to the desired a.i. concentration, leading to a maximal solvent concentration of 0.5%. by weight The compounds alone and the combinations were tested for five increasing concentrations comprised between 0.01 and 1000 ppm (mg/1) a.i., (e.g. 0.1, 1.0, 10 and 100 ppm a.i). For the combinations, compounds A and B were mixed in a weight ratio of 5:1 to 1:5 and five increasing concentrations were tested for each ratio.

Pyricularia oryzae = type: cell-based; conditions: compound alone
[2] = system: causal agent of soybean rust (Phakopsora pachyrhizi); test: Example C: in vivo preventive test on Phakopsora test (soybeans); conditions: compound alone
Colletotrichum coccodes = test: Example B: in vivo preventive test on Colletotrichum test (tomatoes); conditions: compound alone
Description: (§5) The test is evaluated 3 days after the inoculation.

[3] = system: fish (Danio rerio) embryos; test: Example G: in vivo ecotoxicity screening test on fish (Danio rerio); conditions: active compound alone, fish (D. rerio) embryos; for Ecotoxicity LC50-48 h found: mortality after 48 h; for Ecotoxicity LC50-96 h found: mortality after 96 h
Description: as §1, §2, §3, §4

Septoria tritici = test: Example F: in vitro-Test with Septoria tritici; type: cell-based; conditions: compound alone
Alternaria solani = test: Example A: in vivo preventive test on Alternaria test (tomatoes); conditions: compound alone, evaluated 3 days after inoculation
Description: as §5

Pyrenophora oryzae = test: Example F: in vitro-Test with Pyrenophora oryzae; type: cell-based; conditions: compound alone
[4] = system: causal agent of apple scab (Venturia inaequalis); test: Example E: in vivo preventive test on Venturia test (apples); conditions: compound alone

CCCN(CC)CC1COC2(CCC(C(C)(C)C)CC2)O1 (stereo not drawn) [1.020 spiroxamine, spiroxamine, reference compound]
Efficacy % (Alternaria alternata; 4 ppm): 13% | Efficacy % (Alternaria alternata; 20 ppm): 5% | Efficacy % (Alternaria alternata; 100 ppm): 66% | Efficacy in % found (Sphaerotheca fuliginea; 25 ppm a.i.): 0% | Efficacy in % found (Sphaerotheca fuliginea; 50 ppm a.i.): 30% | Efficacy in % found (Sphaerotheca fuliginea; 100 ppm a.i.): 40% | LC50 at 48 h [1]: 16.5 µg/mL | LC50 at 96 h [1]: 14.8 µg/mL

metalaxyl [12.003 metalaxyl]
Efficacy % (Pyricularia oryzae; 20 ppm): 0% | Efficacy % (Pyricularia oryzae; 100 ppm): 5% | Efficacy in % found ([2]; 50 ppm a.i.): 0% | Efficacy in % found ([2]; 100 ppm a.i.): 0% | Efficacy in % found ([2]; 200 ppm a.i.): 20% | Efficacy in % found (Colletotrichum coccodes; 50 ppm a.i.): 0% | Efficacy in % found (Colletotrichum coccodes; 100 ppm a.i.): 0% | Efficacy in % found (Colletotrichum coccodes; 200 ppm a.i.): 8% | Ecotoxicity LC50-48 h found [3]: >200 ppm a.i. | Ecotoxicity LC50-96 h found [3]: >200 ppm a.i. | Efficacy % (Septoria tritici; 20 ppm): 43% | Efficacy % (Septoria tritici; 100 ppm): 31% | Efficacy in % found (Alternaria solani; 50 ppm a.i.): 8% | Efficacy in % found (Alternaria solani; 100 ppm a.i.): 8% | Efficacy in % found (Alternaria solani; 200 ppm a.i.): 30%

COCC(=O)N(c1c(C)cccc1C)[C@H](C)C(=O)OC [12.004 mefenoxam]
Efficacy % (Pyricularia oryzae; 20 ppm): 0% | Efficacy % (Pyricularia oryzae; 100 ppm): 0% | Efficacy in % found ([2]; 50 ppm a.i.): 0% | Efficacy in % found ([2]; 100 ppm a.i.): 8% | Efficacy in % found ([2]; 200 ppm a.i.): 0% | Efficacy in % found (Colletotrichum coccodes; 50 ppm a.i.): 0% | Efficacy in % found (Colletotrichum coccodes; 100 ppm a.i.): 8% | Efficacy in % found (Colletotrichum coccodes; 200 ppm a.i.): 15% | Efficacy % (Septoria tritici; 20 ppm): 28% | Efficacy % (Septoria tritici; 100 ppm): 42%

metalaxyl-M (mefenoxam) [Example 12.004]
Ecotoxicity LC50-48 h found [3]: >200 ppm a.i. | Ecotoxicity LC50-96 h found [3]: >200 ppm a.i.

N#Cc1cncn1CC(O)(Cc1ccccc1F)C1(Cl)CC1 (stereo not drawn) [Example I-34, 1-[2-(1-chlorocyclopropyl)-3-(2-fluorophenyl)-2-hydroxypropyl]-1H-imidazole-5-carbonitrile]
Efficacy in % found ([2]; 1 ppm a.i.): 8% and 0% | Efficacy in % found ([2]; 5 ppm a.i.): 93% and 88% | Efficacy in % found (Sphaerotheca fuliginea; 1 ppm a.i.): 0% | Efficacy in % found (Sphaerotheca fuliginea; 5 ppm a.i.): 0% | Efficacy % (Pyrenophora oryzae; 0.008 ppm): 0% | Efficacy % (Pyrenophora oryzae; 0.2 ppm): 0% | Efficacy in % found (Colletotrichum coccodes; 1 ppm a.i.): 8% | Efficacy in % found (Colletotrichum coccodes; 5 ppm a.i.): 60% | LC50 at 48 h [1]: 35.6 µg/mL | LC50 at 96 h [1]: 27.4 µg/mL | Efficacy % (Septoria tritici; 0.008 ppm): 0% | Efficacy % (Septoria tritici; 0.04 ppm): 28% | Efficacy % (Septoria tritici; 0.2 ppm): 59% | Efficacy % (Septoria tritici; 1 ppm): 68% | Efficacy in % found (Alternaria solani; 1 ppm a.i.): 15% | Efficacy in % found (Alternaria solani; 5 ppm a.i.): 45% | Efficacy in % found ([4]; 1 ppm a.i.): 8% | Efficacy in % found ([4]; 5 ppm a.i.): 66% and 68%

Cc1nn(C)c(F)c1C(=O)Nc1ccccc1C(C)CC(C)C (stereo not drawn) [Example 2.017, penflufen]
Ecotoxicity LC50-48 h found [3]: 1.74 ppm a.i. | Ecotoxicity LC50-96 h found [3]: 0.62 ppm a.i.

N#Cc1cncn1CC(O)(Cc1cccc(Cl)c1F)C1(Cl)CC1 (stereo not drawn) [Example I-145, 1-[3-(3-chloro-2-fluorophenyl)-2-(1-chlorocyclopropyl)-2-hydroxypropyl]-1H-imidazole-5-carbonitrile]
Efficacy % (Pyricularia oryzae; 0.2 ppm): 84% | Efficacy % (Pyricularia oryzae; 1 ppm): 87% | Efficacy in % found ([2]; 1 ppm a.i.): 0% | Efficacy in % found ([2]; 5 ppm a.i.): 45% | Efficacy % (Alternaria alternata; 0.008 ppm): 0% | Efficacy % (Alternaria alternata; 0.04 ppm): 0% and 2% | Efficacy % (Alternaria alternata; 0.2 ppm): 32% | Efficacy % (Alternaria alternata; 1 ppm): 1% | Efficacy in % found (Sphaerotheca fuliginea; 1 ppm a.i.): 0% | Efficacy in % found (Sphaerotheca fuliginea; 5 ppm a.i.): 0% | Efficacy % (Pyrenophora oryzae; 0.008 ppm): 0% | Efficacy % (Pyrenophora oryzae; 0.04 ppm): 0% | Efficacy in % found (Colletotrichum coccodes; 1 ppm a.i.): 23% | Efficacy in % found (Colletotrichum coccodes; 5 ppm a.i.): 75% | LC50 at 48 h [1]: 28.2 µg/mL | LC50 at 96 h [1]: 13.4 µg/mL | Efficacy % (Septoria tritici; 0.008 ppm): 29% | Efficacy % (Septoria tritici; 0.04 ppm): 25% | Efficacy % (Septoria tritici; 0.2 ppm): 51% | Efficacy % (Septoria tritici; 1 ppm): 63% | Efficacy in % found (Alternaria solani; 1 ppm a.i.): 8% | Efficacy in % found (Alternaria solani; 5 ppm a.i.): 40% | Efficacy in % found ([4]; 1 ppm a.i.): 0% | Efficacy in % found ([4]; 5 ppm a.i.): 66%

mancozeb [5.013 mancozeb]
Efficacy in % found ([2]; 12.5 ppm a.i.): 0% | Efficacy in % found ([2]; 25 ppm a.i.): 15% | Efficacy in % found ([2]; 50 ppm a.i.): 80% | Efficacy % (Alternaria alternata; 0.8 ppm): 51% | Efficacy % (Alternaria alternata; 4 ppm): 78% | Efficacy in % found (Colletotrichum coccodes; 12.5 ppm a.i.): 0% | Efficacy in % found (Colletotrichum coccodes; 25 ppm a.i.): 0% | Efficacy in % found (Colletotrichum coccodes; 50 ppm a.i.): 8% | Efficacy in % found (Alternaria solani; 12.5 ppm a.i.): 8% | Efficacy in % found (Alternaria solani; 25 ppm a.i.): 10% | Efficacy in % found (Alternaria solani; 50 ppm a.i.): 85% | Efficacy in % found ([4]; 5 ppm a.i.): 15% | Efficacy in % found ([4]; 10 ppm a.i.): 49% | Efficacy in % found ([4]; 20 ppm a.i.): 95%

— patent publication US20190223437A1, “ACTIVE COMPOUND COMBINATIONS COMPRISING A 5-SUBSTITUTED IMIDAZOLE DERIVATIVE” (BAYER CROPSCIENCE AKTIENGESELLSCHAFT, priority 2016, published 2019)
